Experimental data as given in patent publication US8349768B2, “Use of abscisic acid to alter sensory characteristics of white grapes and wine” (Valent BioSciences Corporation, priority 2007, dated 2013).

Key:
red grapes = details: exogenous application to red grapes prior to harvest; literature; cited from earlier work
[1] = test system: white wine grape cultivar 'Chardonnay'; experiment: Chardonnay field experiment: spectral analysis of berries at harvest; type: in vivo, grapevine; details: for A280 / A320 / A420 / Est. of brown pigments / Total Flavonoids / Total Hydroxycinnamates / Total Phenolics: Chardonnay berries at harvest
Description: (§1) A large block unreplicated field experiment was conducted on the white wine grape cultivar ‘Chardonnay’ in the Riverina growing region of New South Wales, Australia to test the effect of S-ABA on white grapes. Three treatments were tested: Untreated control, 200 ppm S-ABA applied at pre-veraison and 200 ppm S-ABA applied at veraison. Each block consisted of 4 rows and covered 0.4 Ha in size. S-ABA was applied using a commercial airblast sprayer. S-ABA was applied at a concentration of 200 ppm in a volume of approximately 1000 L/Ha (approximately 100 gallons/A) in order to achieve thorough and complete coverage of the grape bunches. A 20% S-ABA soluble granule formulation was utilized in the experiment. The commercial surfactant Kendeen 20 was included at a rate of 50 ml/100 L spray. Applications of S-ABA were made at pre-veraison (approximately 3 weeks before veraison or berry softening) and veraison. Irrigation, summer pruning, insecticide/fungicides and other routine vine management practices were the same as those practiced commercially by the grower in the adjacent parts of the vineyard.
(§2) Grapes samples were harvested at the time of commercial harvest for berry analysis and table wine production. For the standard maturity berry measurements, 12-20 bunches per replicate were sampled. Bunches were randomly selected from both sides of the vines. Samples were analyzed using standard analytical methods used by the grape and wine industry. For additional spectral analyses, samples of 100 berries from each treatment were collected prior to winemaking.

grapevines = details: application of S-ABA; During and Broquedis 1980; cited from earlier work
grapes = details: S-ABA application on grapes; Han et al. 1996; cited from earlier work
[2] = test system: white wine grape cultivar 'Chardonnay'; experiment: Chardonnay wine chemical (spectral) analysis; type: in vivo, grapevine
Description: as §1
Wine was produced from the grapes from each of the S-ABA treatments. Small lot primary fermentations were conducted and the wine was bottled. […] ferments of each treatment were conducted using approximately 3×50 kg of grapes. Each replicate ferment contained an equal volume of grapes from entire panels of vines. All grapes were harvest from both sides of the vines from these panels. The grapes were transferred immediately to the experimental winery, protected from heat and treated with sulfur dioxide. A standard winemaking protocol used for small-scale replicated primary fermentations was followed. Following the fermentation, the wine was bottled.
Chemical analyses were conducted on the wines prepared from the various treatments in the field experiment using industry standard analytical methods.

[3] = test system: white wine grape cultivar 'Chardonnay'; experiment: Chardonnay wine descriptive analysis; type: in vivo, grapevine
Description: as §1
(§3) Wine was produced from the grapes from each of the S-ABA treatments. […]
(§4) Sensory analysis was conducted on the S-ABA-treated and untreated wines. A panel consisting of ten experienced wine tasters evaluated the wines for aroma and taste. […]

[4] = test system: white wine grape cultivar 'Chardonnay'; experiment: Chardonnay wine sensory analysis: straight judgment of difference test; type: in vivo, grapevine; details: All Chardonnay wines from the S-ABA treatments; ten tasters; with statistical significance
Description: as §1, §3, §4

[5] = test system: white wine grape cultivar 'Chardonnay'; experiment: Chardonnay field experiment: standard maturity berry measurements at harvest; type: in vivo, grapevine; details: for Baume: Chardonnay berries at harvest (26 days after veraison); for Titratable Acidity / pH: Chardonnay berries at harvest
Description: as §1, §2

[6] = 200 ppm S-ABA applied at pre-veraison
[7] = 200 ppm S-ABA applied at veraison

Substance: (S)-5-(1-hydroxy-2,6,6,-trimethyl-4-oxo-2-cyclohexen-1-yl)-3-methyl-(2Z,4E)-pentadienoic acid [S-ABA]
- Accumulation of anthocyanins and red color of grape berry skins (red grapes): increase the accumulation of anthocyanins and increase the red color
- A280 [1, 6]: 17.37
- A320 [1, 6]: 3.53
- A420 [1, 6]: 0.530
- Est. of brown pigments [1, 6]: 0.530 a.u.
- Total Flavonoids [1, 6]: 11.96 a.u.
- Total Hydroxycinnamates [1, 6]: 2.13 a.u.
- Total Phenolics [1, 6]: 13.37 a.u.
- A280 [1, 7]: 14.07
- A320 [1, 7]: 3.38
- A420 [1, 7]: 0.567
- Est. of brown pigments [1, 7]: 0.567 a.u.
- Total Flavonoids [1, 7]: 8.76 a.u.
- Total Hydroxycinnamates [1, 7]: 1.98 a.u.
- Total Phenolics [1, 7]: 10.07 a.u.
- Total phenolics, hydroxycinnamates, total flavonoids and estimate of brown pigments (chemical analysis) ([1]; Chardonnay berries, 200 ppm S-ABA treatments vs untreated): some differences
- Stomatal resistance in grapevines (grapevines): increase stomatal resistance
- Berry and cluster weight (grapes): increase berry and cluster weight
- Total Hydroxycinnamates [2, 6]: 3.14 a.u
- Total Phenolics [2, 6]: 2.55 a.u
- Total Hydroxycinnamates [2, 7]: 3.19 a.u
- Total Phenolics [2, 7]: 2.97 a.u
- Balance of hydroxycinnamates and phenolics in S-ABA treated wines ([2]; spectral analysis, 200 ppm S-ABA treatments): different balance of hydroxycinnamates and phenolics
- Descriptive characteristics compared to the Untreated [3, 6]: More intense aroma, slightly more mineral and bitterness
- Effect on fruit aroma and acidic taste in the wine ([3]; 200 ppm S-ABA treatments): increased or intensified
- Judgment of difference from the reference wine (untreated control) [4]: judged to be different from the reference wine
- Baume ([5]; 200 ppm S-ABA foliar spray applied at pre-veraison): 14.3
- Baume ([5]; 200 ppm S-ABA foliar spray applied at veraison): 14.4
- Titratable Acidity [5, 6]: 6.2
- pH [5, 6]: 3.73
- Titratable Acidity [5, 7]: 6.9
- pH [5, 7]: 3.60
- Effect on berry sugar content (Baume), pH, titratable acidity or bunch weight ([5]; Chardonnay, 200 ppm S-ABA treatments): did not consistently affect
